Results: PubChem BioAssay AID1259411 (Chemical Carcinogenesis Research Information System (CCRIS), 2018)
The source made the active and inactive calls. The rule behind the calls is not given here.

System: rodent carcinogenicity bioassays, tumor incidence
Test: CCRIS carcinogenicity studies
Method in brief: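 NCI-built, expert-reviewed records of carcinogenicity and related test outcomes (mutagenicity, tumor promotion/inhibition) compiled from published and report sources, historical span 1985-2011, not updated.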

## Cc1c2ccccc2c(C)c2c1ccc1ccccc12
Species: MOUSE, Strain/Sex: SWISS/MALE,FEMALE, Route: SUBCUTANEOUS, Dose: 30-40 UG IN 0.02 ML OF 1% AQ GEL, Tumor Site: Type of Lesion: LUNG, LYMPHATIC SYSTEM: MALIGNANT LYMPHOMA
  carcinogen call: active; positive
Species: RAT, Strain/Sex: ALBINO/MALE,FEMALE, Route: SUBCUTANEOUS, Dose: 5 MG IN 0.5 ML OLIVE OIL ONCE, Tumor Site: Type of Lesion: INJECTION SITE: RHABDOMYOSARCOMA
  carcinogen call: active; positive
Species: RAT, Strain/Sex: BIRMINGHAM/ MALE, FEMALE, Route: DERMAL, Dose: 0.5, 1.6% SOLN IN OLIVE OIL ONCE EVERY 2 WK, Tumor Site: Type of Lesion: INTEGUMENTARY SYSTEM (SKIN): SQUAMOUS PAPILLOMA, KERATOACANTHOMA, SQUAMOUS CELL CARCINOMA, MAMMARY GLAND
  carcinogen call: active; positive
Species: RAT, Strain/Sex: F344/FEMALE, 3 WKS OF AGE, Route: GAVAGE, Dose: 50 MG/KG ONCE (STUDY DURATION: 36 WKS), Tumor Site: Type of Lesion: MAMMARY GLAND: CARCINOMA
  carcinogen call: 20% tumor incidence; 0.23 carcinomas/rat; immature rats less susceptible
Species: RAT, Strain/Sex: F344/FEMALE, 8 WKS OF AGE, Route: GAVAGE, Dose: 50 MG/KG ONCE (STUDY DURATION: 36 WKS), Tumor Site: Type of Lesion: MAMMARY GLAND: CARCINOMA
  carcinogen call: 69% tumor incidence; 1.27 carcinomas/rat; mature rats more susceptible
Species: RAT, Strain/Sex: OUTBRED/ MALE, FEMALE, Route: DERMAL, Dose: 0.5, 1.6% SOLN IN OLIVE OIL ONCE EVERY 2 WK, Tumor Site: Type of Lesion: INTEGUMENTARY SYSTEM (SKIN): SQUAMOUS PAPILLOMA, KERATOACANTHOMA, SQUAMOUS CELL CARCINOMA, MAMMARY GLAND
  carcinogen call: active; positive
Species: RAT, Strain/Sex: SPRAGUE-DAWLEY/FEMALE, Route: GAVAGE, Dose: 10 MG IN 0.5 ML SESAME OIL ONCE, Tumor Site: Type of Lesion: MAMMARY GLAND
  carcinogen call: active; positive
Species: RAT, Strain/Sex: SPRAGUE-DAWLEY/FEMALE, Route: GAVAGE, Dose: 20 MG IN 1 ML SESAME OIL ONCE, Tumor Site: Type of Lesion: MAMMARY GLAND: FIBROADENOMA, CARCINOMA
  carcinogen call: active; positive
Species: RAT, Strain/Sex: SPRAGUE-DAWLEY/FEMALE, Route: INJECTION, Dose: 0, 0.25, 1 UMOL PER MAMMARY GLAND (STUDY DURATION: 24 WK), Dose: 0, 0.25, 1 UMOL PER MAMMARY GLAND (STUDY DURATION: 24 WK), Tumor Site: Type of Lesion: MAMMARY GLAND: TUMOR
  carcinogen call: active; positive
Species: RAT, Strain/Sex: SPRAGUE-DAWLEY/FEMALE, Route: INTRAVENOUS, Dose: 5 MG IN 1 ML LIPID EMULSION ONCE, Tumor Site: Type of Lesion: MAMMARY GLAND
  carcinogen call: active; positive
Species: RAT, Strain/Sex: SPRAGUE-DAWLEY/FEMALE, Route: ORAL, Dose: 10 MG IN SESAME OIL 3 TIMES AT 14 D INTERVALS, Tumor Site: Type of Lesion: MAMMARY GLAND: ADENOMA, ADENOCARCINOMA
  carcinogen call: active; positive
Species: RAT, Strain/Sex: SPRAGUE-DAWLEY/FEMALE, Route: ORAL, Dose: 20 MG IN SESAME OIL ONCE, Tumor Site: Type of Lesion: MAMMARY GLAND: ADENOMA, FIBROADENOMA, CARCINOMA, ADENOCARCINOMA
  carcinogen call: active; positive
Species: RAT, Strain/Sex: SPRAGUE-DAWLEY/FEMALE, Route: SUBCUTANEOUS, Dose: 0, 2 UMOL IN 0.25 ML TRIOCTANOIN INTO LEFT HIND LEG AT ABOUT 40 D OF AGE FOLLOWED BY SECOND DOSE 6 D LATER (STUDY DURATI, Tumor Site: Type of Lesion: INJECTION SITE: SARCOMA
  carcinogen call: active; positive
Species: RAT, Strain/Sex: SPRAGUE-DAWLEY/FEMALE, Route: SUBCUTANEOUS, Dose: 0, 2 UMOL IN 0.25 ML TRIOCTANOIN ONCE INTO LEFT HIND LEG AT ABOUT 40 D OF AGE (STUDY DURATION: 16 MO), Tumor Site: Type of Lesion: INJECTION SITE: SARCOMA
  carcinogen call: active; positive
Species: RAT, Strain/Sex: STRAIN-CB/FEMALE, Route: SUBCUTANEOUS, Dose: 0.25 ML OF 1% SOLN IN DMSO ONCE, Tumor Site: Type of Lesion: INJECTION SITE: SPINDLE CELL SARCOMA
  carcinogen call: active; positive
Species: RAT, Strain/Sex: WISTAR/FEMALE, Route: GAVAGE, Dose: 0.4 ML OF 0.5% SUNFLOWER SEED OIL SOLN 2/WK FOR 4.5 MO (TOTAL DOSE: 68 MG), Tumor Site: Type of Lesion: HEMATOPOIETIC SYSTEM (LEUKEMIA)
  carcinogen call: active; positive
Species: RAT, Strain/Sex: WISTAR/FEMALE, Route: INJECTION, Dose: 0, 0.05 ML OF A 1% SOLUTION IN ACETONE INJECTED INTO SUBMANDIBULAR SALIVARY GLANDS AFTER EXCISION OF A SMALL PORTION OF, Tumor Site: Type of Lesion: SALIVARY GLAND: ADENOCARCINOMA
  carcinogen call: active; positive
Species: RAT, Strain/Sex: WISTAR/FEMALE, Route: INTRADUCTAL, Dose: 0, 1 MG IN 0.05 ML OF SESAME OIL INJECTED INTO MAIN MAMMARY DUCT ON THE 10TH PUERPERAL DAY (STUDY DURATION: 20 WK), Tumor Site: Type of Lesion: MAMMARY GLAND: DUCTAL CARCINOMA
  carcinogen call: active; positive
Species: RAT, Strain/Sex: WISTAR/FEMALE, Route: ORAL, Dose: 10 MG IN SESAME OIL 3 TIMES AT 14 D INTERVALS, Tumor Site: Type of Lesion: MAMMARY GLAND: ADENOMA, ADENOCARCINOMA
  carcinogen call: active; positive
Species: RAT, Strain/Sex: WISTAR/FURTH/FEMALE, Route: OVARIAN IMPLANTATION OF CARCINOGEN-COATED SUTURE AT 7 WKS OF AGE, Dose: 200 UG IN SUTURE ONCE (STUDY DURATION: 1 YR), Tumor Site: Type of Lesion: OVARY: ADENOCARCINOMA, 77%
  carcinogen call: active; positive
Species: RAT, Strain/Sex: WISTAR/MALE, Route: INJECTION, Dose: 0, 0.05 ML OF A 1% SOLUTION IN ACETONE INJECTED INTO SUBMANDIBULAR SALIVARY GLANDS AFTER EXCISION OF A SMALL PORTION OF, Tumor Site: Type of Lesion: SALIVARY GLAND: FIBROSARCOMA
  carcinogen call: active; positive
Species: RAT, Strain/Sex: ZUCKER/FEMALE, LEAN, Route: ORAL (GAVAGE), Dose: 65 MG/KG ONCE AT 50 D OF AGE (STUDY DURATION: 139 D), Tumor Site: Type of Lesion: MAMMARY: TUMOR 32%, LATENCY 86 D
  carcinogen call: active; positive; lean rats had longer latent period and lower tumor incidence than obes
Species: RAT, Strain/Sex: ZUCKER/FEMALE, OBESE, Route: ORAL (GAVAGE), Dose: 65 MG/KG ONCE AT 50 D OF AGE (STUDY DURATION: 139 D), Tumor Site: Type of Lesion: MAMMARY: TUMOR 68%, LATENCY 49 D
  carcinogen call: active; positive; obese rats had higher tumor incidence and shorter latent period than l
Species: Rat, Strain/Sex: Fischer 344/Female, Route: Direct application to ovary, Dose: 100 ug in sesame oil, once, study duration 5 months
  carcinogen call: inactive; negative
Species: SHREW, Strain/Sex: JAPANESE/FEMALE, Route: INTRAPERITONEAL, Dose: 0, 1.25, 2.5 MG 1/WK FOR 4 WK (STUDY DURATION: 50 WK), Dose: 0, 1.25, 2.5 MG 1/WK FOR 4 WK (STUDY DURATION: 50 WK), Tumor Site: Type of Lesion: HEMATOPOIETIC SYSTEM: LEUKEMIA
  carcinogen call: active; positive
Species: SHREW, Strain/Sex: JAPANESE/FEMALE, Route: INTRAPERITONEAL, Dose: 0, 1.25, 2.5 MG 1/WK FOR 8 WK (STUDY DURATION: 50 WK), Dose: 0, 1.25, 2.5 MG 1/WK FOR 8 WK (STUDY DURATION: 50 WK), Tumor Site: Type of Lesion: HEMATOPOIETIC SYSTEM: LEUKEMIA
  carcinogen call: active; positive
Species: SHREW, Strain/Sex: JAPANESE/FEMALE, Route: SUBCUTANEOUS, Dose: 0, 1 MG INTO RIGHT INGUINAL SUBCUTANEOUS TISSUE OVER THE MAMMARY GLAND ONCE (STUDY DURATION: 50 WK), Tumor Site: Type of Lesion: INJECTION SITE: SARCOMA
  carcinogen call: active; positive
